Source: patent US9060959B2, “Synergistic compositions and method for potentiating anti-oxidative activity” (The State of Israel, Ministry of Agriculture & Rural …, priority 2003, dated 2015)

Experiments:
[1] = in vivo; cited from earlier work
[2] = system: β-carotene oxidation catalyzed by metmyoglobin; assay: β-carotene co-oxidation in simulated gastric fluid; format: biochemical
Experimental: Here B carotene co-oxidation was determined in order to identify free radical damage during lipid peroxidation in the same model system of acid gastric fluid (FIG. 2).
However, the addition of catechin to the same system containing metmyoglobin inhibited β-carotene oxidation by 100% (FIG. 2).

[3] = system: peroxides / lipid peroxidation catalyzed by metmyoglobin; assay: Simulated gastric system comprising polyphenol and metmyoglobin catalyst, with antacid; format: biochemical; conditions: low acidic conditions obtained by addition of antacid, metmyoglobin catalyst
Description: An unexpected phenomenon established by the inventors of the present invention is that that in the stomach, generation or breakdown of peroxides by endogenous catalysts or catalysts obtained from food products, or components thereof, and food supplements can be selected by polyphenols and antacids. In other words, the appropriate combination of polyphenol and antacids can invert the catalyzed reaction from pro-oxidation to antioxidation consequently attenuating lipid peroxidation in the stomach.
The terms “a gastric-simulating system” or “simulated gastric system” are interchangeably used herein to describe an experimental setup comprising components which simulate, in-vitro, the environment of the GI tracts or components thereto. In a particular example, a gastric simulating system may comprise the following components: HCl 0.1N and pepsin (Kanner et al. ibid).
Hydroperoxides measurement in linoleic acid emulsions: Catechin was dissolved in 10% ethanol in water and the reaction tubes were incubated in triplicate in a shaking bath at 37° C. for 180 min. Samples of 25 or 50 μl were taken from the reaction tubes during the incubation and added to 475 or 950 μl, respectively, of FOX2 reagent. Before each experiment, old stock solution of linoleic acid was mixed with fresh solution in order to maintain an accurately consistent initial level of hydroperoxides.

Row | Compound | raises pH of the stomach to [1] [pH] | inhibition of β-carotene oxidation ([2]; acid gastric fluid model system containing metmyoglobin) [%] | β-carotene co-oxidation ([2]; low acidic conditions obtained by addition of antacid, metmyoglobin catalyst) | lipid peroxidation [3] | peroxide generation [3]
1 | O=C([O-])[O-].[Ca+2] [Calcium carbonate] | ≤ 7.0 | – | – | – | –
2 | [Mg+2].[OH-].[OH-] [Magnesium hydroxide] | 9 | – | – | – | –
3 | catechin | – | 100 | completely prevented | completely prevented | zero
